Reference: the NIST ThermoML archive (doi:10.1021/je025657+)
Values joined by “and” are separate entries in the source; they are usually repeats but may differ in a detail not shown here. Identical values can stand only once.

COC(F)(F)F [trifluoromethoxymethane]
Conditions | mass density [kg/m3]
240 K, 17 kPa, Gas | 0.84
240 K, 25.1 kPa, Gas | 1.25
240 K, 36.9 kPa, Gas | 1.87
240 K, 517.1 kPa, Liquid | 1262.64
240 K, 1011 kPa, Liquid | 1263.83
240 K, 1516.2 kPa, Liquid | 1265.03
240 K, 2014.7 kPa, Liquid | 1266.21
240 K, 2517.3 kPa, Liquid | 1267.38
240 K, 3024.1 kPa, Liquid | 1268.56
240 K, 3529.6 kPa, Liquid | 1269.72
240 K, 4031 kPa, Liquid | 1270.86
240 K, 4515.5 kPa, Liquid | 1271.95
240 K, 5038.9 kPa, Liquid | 1273.12
240 K, 5511.8 kPa, Liquid | 1274.16
240 K, 6024.7 kPa, Liquid | 1275.29
240 K, 6511.7 kPa, Liquid | 1276.35
240 K, 6981.1 kPa, Liquid | 1277.36
250 K, 19.2 kPa, Gas | 0.91
250 K, 28.3 kPa, Gas | 1.34
250 K, 41.7 kPa, Gas | 1.98
250 K, 61.2 kPa, Gas | 2.94
250 K, 89.4 kPa, Gas | 4.33
250 K, 505.1 kPa, Liquid | 1236.18
250 K, 1008.8 kPa, Liquid | 1237.55
250 K, 1508.8 kPa, Liquid | 1238.91
250 K, 2020.1 kPa, Liquid | 1240.28
250 K, 2517.2 kPa, Liquid | 1241.59
250 K, 3037 kPa, Liquid | 1242.95
250 K, 3530.8 kPa, Liquid | 1244.22
250 K, 4030.5 kPa, Liquid | 1245.49
250 K, 4537.2 kPa, Liquid | 1246.78
250 K, 5042.6 kPa, Liquid | 1248.05
250 K, 5550.6 kPa, Liquid | 1249.31
250 K, 6026.5 kPa, Liquid | 1250.48
250 K, 6529.6 kPa, Liquid | 1251.71
250 K, 6975.1 kPa, Liquid | 1252.79
260 K, 18.7 kPa, Gas | 1.11
260 K, 27.6 kPa, Gas | 1.53
260 K, 40.7 kPa, Gas | 2.15
260 K, 59.9 kPa, Gas | 3.03
260 K, 87.8 kPa, Gas | 4.4
260 K, 127.7 kPa, Gas | 6.4
260 K, 507.8 kPa, Liquid | 1209.12
260 K, 1009.3 kPa, Liquid | 1210.7
260 K, 1499.4 kPa, Liquid | 1212.21
260 K, 2004.5 kPa, Liquid | 1213.76
260 K, 2515.8 kPa, Liquid | 1215.3
260 K, 3012.1 kPa, Liquid | 1216.77
260 K, 3527.2 kPa, Liquid | 1218.29
260 K, 4018 kPa, Liquid | 1219.71
260 K, 4522 kPa, Liquid | 1221.16
260 K, 5039.1 kPa, Liquid | 1222.63
260 K, 5512.3 kPa, Liquid | 1223.96
260 K, 6040.8 kPa, Liquid | 1225.42
260 K, 6546.9 kPa, Liquid | 1226.81
260 K, 6987.4 kPa, Liquid | 1227.99
270 K, 23.7 kPa, Gas | 1.1
270 K, 35 kPa, Gas | 1.6
270 K, 51.5 kPa, Gas | 2.35
270 K, 75.7 kPa, Gas | 3.49
270 K, 110.6 kPa, Gas | 5.15
270 K, 160.6 kPa, Gas | 7.63
270 K, 500.8 kPa, Liquid | 1180.45
270 K, 1001.8 kPa, Liquid | 1182.27
270 K, 1515.4 kPa, Liquid | 1184.1
270 K, 1999.2 kPa, Liquid | 1185.81
270 K, 2500.7 kPa, Liquid | 1187.53
270 K, 3017 kPa, Liquid | 1189.29
270 K, 3484.3 kPa, Liquid | 1190.86
270 K, 4038.2 kPa, Liquid | 1192.68
270 K, 4513.3 kPa, Liquid | 1194.24
270 K, 5047.2 kPa, Liquid | 1195.96
270 K, 5542.1 kPa, Liquid | 1197.53
270 K, 6036.1 kPa, Liquid | 1199.08
270 K, 6529.6 kPa, Liquid | 1200.61
270 K, 6973.6 kPa, Liquid | 1201.96
280 K, 27.5 kPa, Gas | 1.21
280 K, 40.5 kPa, Gas | 1.79
280 K, 59.6 kPa, Gas | 2.61
280 K, 87.6 kPa, Gas | 3.89
280 K, 128.3 kPa, Gas | 5.75
280 K, 186.4 kPa, Gas | 8.53
280 K, 269 kPa, Gas | 12.52
280 K, 454.4 kPa, Liquid | 1150.61
280 K, 985.2 kPa, Liquid | 1152.87
280 K, 1507.7 kPa, Liquid | 1155.03
280 K, 1992.9 kPa, Liquid | 1157.02
280 K, 2510.8 kPa, Liquid | 1159.1
280 K, 3011.5 kPa, Liquid | 1161.06
280 K, 3522.2 kPa, Liquid | 1163.04
280 K, 4037.2 kPa, Liquid | 1164.99
280 K, 4483.8 kPa, Liquid | 1166.68
280 K, 4942.1 kPa, Liquid | 1168.36
280 K, 5533.2 kPa, Liquid | 1170.51
280 K, 5977.4 kPa, Liquid | 1172.09
280 K, 6516.6 kPa, Liquid | 1173.99
280 K, 7008.7 kPa, Liquid | 1175.7
290 K, 18.9 kPa, Gas | 0.76
290 K, 30.4 kPa, Gas | 1.28
290 K, 50.3 kPa, Gas | 2.25
290 K, 74.2 kPa, Gas | 3.26
290 K, 109 kPa, Gas | 4.83
290 K, 159.4 kPa, Gas | 7.09
290 K, 232.8 kPa, Gas | 10.52
290 K, 338.9 kPa, Gas | 15.78
290 K, 493.5 kPa, Liquid | 1119.5
290 K, 976.7 kPa, Liquid | 1121.93
290 K, 979.3 kPa, Liquid | 1121.87
290 K, 1475.8 kPa, Liquid | 1124.36
290 K, 1999.9 kPa, Liquid | 1126.86
290 K, 2466.6 kPa, Liquid | 1129.04
290 K, 2989.9 kPa, Liquid | 1131.43
290 K, 3492.2 kPa, Liquid | 1133.73

Liquid
Conditions | mass density
240 K | 1261.55 kg/m3 and 1261.54 kg/m3
250 K | 1235.07 kg/m3
260 K | 1208.02 kg/m3
270 K | 1179.44 kg/m3
280 K | 1150.07 kg/m3
